# Source: patent EP1509285B1, “SYNERGISTIC COMPOSITION OF TRANS-TETRACOS-15-ENOIC ACID AND APOCYNIN AND USE THEREOF” (COUNCIL OF SCIENTIFIC AND INDUSTRIAL RESEARCH, priority 2002, dated 2003)
# Experiments:
# [1] = tested on: D-Galactosamine (GAIN) induced hepatic injury; experiment: Hepatoprotective activity (in vivo) against D-Galactosamine induced hepatic injury; conditions: rats; for Hepatic parameters Glutathione / Hepatic parameters Lipid peroxidation / Serum parameters ALP / Serum parameters Bilirubin / Serum parameters Triglycerides / Serum parameters GOT / Serum parameters GPT: 50 mg kg-1 p.o. at 48 h, 24h, 2 h before and 6 h after GalN 300 mg kg-1 s.c., mean ± S.E.; for Serum parameters GOT / Serum parameters GPT: unit is µmole pyruvate/min/L; for hepatoprotective activity percent, ALP / hepatoprotective activity percent, Bilirubin / hepatoprotective activity percent, GOT / hepatoprotective activity percent, GPT / hepatoprotective activity percent, Glutathione / hepatoprotective activity percent, Lipid peroxidation / hepatoprotective activity percent, Triglycerides: GalN, 50 mg kg-1 p.o., H = [1-(TC-V/VC-V)] × 100
# Procedure: (§1) i. Animals: The pharmacological studies are conducted on Wistar albino rats (150-180g) and Swiss albino mice (25-30g) of either sex, colony - bred in the Institute's animal house. After procurement, all the animals are divided into different groups and are left for one week for acclimatization to experimentation room and are maintained on standard conditions (23±2°C, 60-70 % relative humidity and 12 h photo period). The animals are fed with standard rodents pellet diet and water ad libitum. There are six animals in each group except for general behaviour and acute toxicity studies where ten animals are used in each group.
# D-Galactosamine: It is one of the toxins that induce hepatic inflammatory conditions in the rat liver that clinically resembles to viral hepatitis. The mechanism of GalN induced liver injury has been extensively examined and this model is now accepted as one of the authentic systems of liver damage (Bauer et. al., 1974, Al-Tuwaijiri et. al., 1981). (Table1)
# Hepatic damage is produced by injecting GalN (300 mg.kg^-1) subcutaneously in normal saline. The control animals received the equal volume of vehicle.
# (§2) Freshly prepared suspension (1%, w/v) in 0.2% gum acacia in normal saline is used for all the experiments except for toxicity studies where (10 %, w/v) suspension is used. Silymarin suspension (1%, w/v) in 0.2 % gum acacia is used as a reference standard (positive control).
# Blood is collected from orbital sinus in all the animals 18 h after last treatment and serum separated for different estimations. All the animals are then killed by decapitation, their livers are quickly excised, cleaned of adhering tissue, weighed and homogenised in phosphate buffer saline for the analysis of hepatic parameters. A portion of the liver is processed for histopathological studies (Table 1)
# (§3) • GPT and GOT: Pyruvate formed by transamination reaction is determined spectrophotometrically after reaction with 2,4-dinitrophenylhydrazine (Reitman and Frankel, 1957). • ALP : p-nitrophenol formed in alkaline medium is measured spectrophotometrically using p-nitrophenyl phosphate as substrate (Walter and Schutt, 1974). • Bilirubin : Total bilirubin is measured by diazotization reaction with NaNO2 (Malloy and Evelyn, 1937) • Triglycerides : Triglycerides from serum are extracted with isopropanol and sopanified with KOH. The liberated glycerol is converted to formaldehyde by periodate and determined after reaction with acetyl acetone. Triolein is used as standard (Neri and Firings, 1973). • Glutathione: It is determined after deproteination by reaction with DTNB (Ellman 1959 as modified by David 1987). • Lipid peroxidation: Thiobarbituric acid reacting substances are determined spectrophotometrically at 535 nm. Buege. and Aust. (1978).
# (§4) Hepatoprotective activity (H) is calculated by the following equation: H = [1-(TC-V/VC-V)] × 100 [formula]
# (§5) Where TC, VC, and V are drug + toxin, vehicle + toxin and vehicle treated groups of animals respectively.
# [2] = tested on: CCl4 induced hepatic injury; experiment: Hepatoprotective activity (in vivo) against CCl4 induced hepatic injury; conditions: rats; for Hepatic parameters Glutathione / Hepatic parameters Lipid peroxidation / Serum parameters ALP / Serum parameters Bilirubin / Serum parameters Triglycerides / Serum parameters GOT / Serum parameters GPT: 50 mg kg-1 p.o. at 48h, 24h, 2h before and 6h after CCl4 0.5 ml kg-1 p.o.; for Serum parameters GOT / Serum parameters GPT: unit is µmole pyruvate/min/L; for hepatoprotective activity percent, ALP / hepatoprotective activity percent, Bilirubin / hepatoprotective activity percent, GOT / hepatoprotective activity percent, GPT / hepatoprotective activity percent, Glutathione / hepatoprotective activity percent, Lipid peroxidation / hepatoprotective activity percent, Triglycerides: CCl4, 50 mg kg-1 p.o., H = [1-(TC-V/VC-V)] × 100
# Procedure: as §1
# Carbon tetrachloride (CCl4): CCl4 is one of the most powerful hepatotoxins (in term of severity of injury). It causes toxic necrosis, which leads to biochemical changes having clinical features similar to those of acute viral hepatitis (Vogel, 1977, Bramanti et. al., 1978, Kumar et. al., 1992). Liver injury is produced by administration of CCl4 mixed with liquid paraffin. Animals are given single dose of CCl4 (50 µl.kg^-1, p.o.) in acute single treatment and (0.5 ml.kg^-1, p.o.) in case of multitreatment with drug. It is administered orally (p.o) by gastric intubation. The control animals received the equal volume of liquid paraffin. (Table 3, 4).
# as §2
# Treatment of test material before and after hepatotoxin: The doses of TCA and APO individually and in mixture, silymarin (50 mg/kg, p.o. each) and vehicle (normal saline) are fed to different groups of rats at 48 hours, 24 hours and 2 hours before and 6 hours after hepatotoxin (CCl4 , 0.5 ml.kg^-1, p.o.) intoxication. Blood is collected from orbital sinus in all the animals 18 hours after last treatment and serum separated for different estimations. All the animals are then killed by decapitation, their livers are quickly excised, cleaned of adhering tissue, weighed and homogenised in phosphate buffer saline for the analysis of hepatic parameters (Agarwal and Mehendale, 1983, Klingensmith and Mehendale, 1982, Zimmerman, 1973, Edmondson and Peter, 1985, Mitchell, et al, 1973). (Table 3-4).
# as §3, §4, §5
# [3] = tested on: bile flow and bile solids; experiment: Choleretic activity: bile flow and bile solids after bile duct cannulation in normal anaesthetised rats; format: in vivo; conditions: 50 mg kg-1 i.d., bile collected 0-5 hours, mean ±SE
# Description: The liver, by producing bile, plays an important role in digestion. The presence of bile in the intestine is necessary to accomplish the digestion and absorption of fats as well as absorption of the fat-soluble vitamins- A, D, E & K. Bile is also an important vehicle of excretion. It removes many drugs, toxins, bile pigments and various inorganic substances either derived from the diet or synthesized by the body as cholesterol or as cholic acid.
# Effect on the liver bile flow of test drug and that of vehicle is carried out after cannulating the bile duct in normal anaesthesied rats. Bile collected is from each animal from 0-5 hours (Klaassen, 1969, Donal et al.1953). (Table 5)
# [4] = Table 4 (own control groups), mean ± S. E.
SMILES,Hepatic parameters Glutathione [1] [µ mole GSH/g liver],Hepatic parameters Lipid peroxidation [1] [n moles MDA/g liver],Serum parameters ALP [1],Serum parameters Bilirubin [1] [mg %],Serum parameters Triglycerides [1] [mg %],Serum parameters GOT [1] [Units],Serum parameters GPT [1] [Units],"hepatoprotective activity percent, ALP [1]","hepatoprotective activity percent, Bilirubin [1]","hepatoprotective activity percent, GOT [1]","hepatoprotective activity percent, GPT [1]","hepatoprotective activity percent, Glutathione [1]","hepatoprotective activity percent, Lipid peroxidation [1]","hepatoprotective activity percent, Triglycerides [1]",Bile parameters % Increase (as compared to normal) Bile flow [3] [ml%],Bile parameters % Increase (as compared to normal) Bile solids [3] [mg%],other results
"COc1cc(C(C)=O)ccc1O [APO, Apocynin]",4.52±0.49,48.71±3.69,37.73±1.64 µ mole of p-nitrophenol formed/min/ L,0.41±0.02,31.85±3.74,509.33±41.63,859.18±50.51,(68.76) percent,(41.66) percent,(38.42) percent,(46.59) percent,(21.51) percent,(39.93) percent,(42.95) percent,27.39±2.05,24.05±2.76,"Hepatic parameters Glutathione [2, 4]: 4.44±0.26 µ mole GSH/g liver; Hepatic parameters Lipid peroxidation [2, 4]: 48.12±2.28 n moles MDA/g liver; Serum parameters ALP [2, 4]: 26.66±2.06 µ mole ofp-nitrophenol formed/min/ L; Serum parameters Bilirubin [2, 4]: 0.37±0.01 mg %; Serum parameters Triglycerides [2, 4]: 28.00±2.39 mg %; Serum parameters GOT [2, 4]: 489.39±66.82 Units; Serum parameters GPT [2, 4]: 838.58±69.65 Units; hepatoprotective activity percent, ALP ([2]; Table 4): (86.05) percent; hepatoprotective activity percent, Bilirubin ([2]; Table 4): (48.94) percent; hepatoprotective activity percent, GOT ([2]; Table 4): (39.31) percent; hepatoprotective activity percent, GPT ([2]; Table 4): (47.86) percent; hepatoprotective activity percent, Glutathione ([2]; Table 4): (40.73) percent; hepatoprotective activity percent, Lipid peroxidation ([2]; Table 4): (42.77) percent; hepatoprotective activity percent, Triglycerides ([2]; Table 4): (36.68) percent"
"CCCCCCCC/C=C/CCCCCCCCCCCCCC(=O)O [TCA, trans-tetracos-15-enoic acid]",5.39±0.43,42.12±3.93,44.16±2.87 µ mole of p-nitrophenol formed/min/ L,0.29±0.03,29.78±2.82,421.64±30.36,758.59±40.86,(59.67) percent,(66.66) percent,(52.03) percent,(53.74) percent,(38.84) percent,(59.35) percent,(50.99) percent,08.23±1.71,13.40±1.53,"Hepatic parameters Glutathione ([2]; Table 3, mean ± S.E.): 5.35±0.51 µ mole GSH/g liver; Hepatic parameters Lipid peroxidation ([2]; Table 3, mean ± S.E.): 46.88±2.58 n moles MDA/g liver; Serum parameters ALP ([2]; Table 3, mean ± S.E.): 28.72±3.90 µ mole of p-nitrophenol formed/min/ L; Serum parameters Bilirubin ([2]; Table 3, mean ± S.E.): 0.35±0.02 mg %; Serum parameters Triglycerides ([2]; Table 3, mean ± S.E.): 23.53±1.77 mg %; Serum parameters GOT ([2]; Table 3, mean ± S.E.): 409.73±46.57 Units; Serum parameters GPT ([2]; Table 3, mean ± S.E.): 324.84±42.09 Units; hepatoprotective activity percent, ALP ([2]; Table 3): (81.78) percent; hepatoprotective activity percent, Bilirubin ([2]; Table 3): (55.55) percent; hepatoprotective activity percent, GOT ([2]; Table 3): (62.16) percent; hepatoprotective activity percent, GPT ([2]; Table 3): (74.63) percent; hepatoprotective activity percent, Glutathione ([2]; Table 3): (52.92) percent; hepatoprotective activity percent, Lipid peroxidation ([2]; Table 3): (64.33) percent; hepatoprotective activity percent, Triglycerides ([2]; Table 3): (66.05) percent"
